Entries after “also recorded” stand apart in the source; their conditions may differ.
Experiments:
[1] = test system: human progenitor cells; experiment: Proteoglycan synthesis in micromass cultures, 5 days; format: cell-based; conditions: 5 day micromass; for proteoglycan synthesis / chondrogenic differentiation: dextran polysulfate 1-20 micrograms/mL, FIG. 19B; for proteoglycan synthesis (35SO4 incorporation into PGs): hyaluronan in place of PPS, FIG. 19A
Source text: FIG. 17. Bar graphs showing the concentration dependent effects of PPS on proteoglycan synthesis by human progenitor cells in micromass cultures for 5 days. Data is presented as 35S-GAG radioactivity and as a percentage of control taken as 100%. * P<0.05 relative to control.
FIG. 19. Bar graphs showing the concentration dependent effects of (A) Hyaluronan (Supartz™) and (B) Dextran Polysulfate on proteoglycan synthesis by human progenitor cells in micromass cultures for 5 days. Data is presented as ^35S-GAG radioactivity and as a percentage of control, taken as 100% or as DPM/ug DNA. * P<0.05 relative to control.
The technique used was based on that described by (Denker A E, Haas A R, Nicoll S B and Tuan R S. Chondrogenic differentiation of murine C3H10T1/2 multipotential progenitor cells: I. Stimulation by bone morphogenetic protein-2 in high density micromass cultures. Differentiation (1999); 64: 67-76). Briefly murine Progenitor cells (cell lines C3H10T1/2 or ATDC5) purchased from RIKEN Cell Bank (Tsukuba, Japan) or human immunoselected Stro-1+ Progenitor cells (Mesoblast Ltd, Melbourne, Australia) Ten microlitres (10 μl) of a suspension of the progenitor cells (1×10^7 cells/ml in Ham's F12 medium+10% FBS) were applied to individual wells of a 24-well plates. After incubatation at 37° C. in a humidified atmosphere of 5% CO2/95% air for 2-3 hours, 900 μl of Ham's F12 medium (10% FBS) and 100 μl of PPS solution in the same medium were added slowly into the wells to afford final concentrations of PPS in each of 0, 0.1, 0.5, 1.0, 2.5, 5.0, 10.0, 20.0 μg/ml alone or in combination with rhNC4 (0, 0.1, 0.5, 1.0, 2.5, 5.0, 10.0, 25.0 μg/ml). Each drug concentration was repeated in triplicate. The cells were maintained in culture for up to 10 days. The medium with/without drugs was changed every 3 days but 24 hours before termination of the experiment 80 μl of 50 μCi/ml ^35S-H2SO4 was added to achieve a final ^35SO4 concentration of 5 μCi/ml. The following day, the cells in one of the plates were trypsinized with 150 μl/well of 2.5% trypsin and separated from the medium by centrifugation at 800 g for 10 minutes, washed with 500 μl of 1×PBS and stored in liquid nitrogen for RNA and/or DNA extraction and analysis. Media and supernatants were combined in one tube for each concentration of PPS used. To the tubes was added, 200 μl of 5× Papain solution [2.5 mg/ml Papain, 7.9 mg/ml L-Cysteine in Papain buffer (0.1 M NaAC, 5 mM EDTA, pH6.0)] and the solution incubated at 65° C. for 2 hours. After papain digestion, Four aliquots of 200 μl of digested solution were transferred to a 96-well plate (200 μl/well). The ^35S-GAG released by the digestion step were separated from the free ^35SO4 by adding 20 μl 5% CPC and 10 μl 1 mg/ml CSA with gentle shaking at 300 rpm RT for 20-30 min to precipitate the ^35S-GAG-CPC complexes. The precipitates were collected by filtered through glass fibre filters using a cell harvester. The filters were then air-dried and discs punched to scintillation vials. 3 ml/vial scintillation cocktail liquid was added and vortexed for 30-45 sec. The radioactivity of ^35S—SO4 incorporated the ^35S-GAG-CPC complexes was measured by scintillation counting.
Data is presented as 35S-GAG radioactivity and as a percentage of control taken as 100%. * P<0.05 relative to control.
Similar experiments were undertaken using Hyaluronic acid (SuperArtz (SKK, Tokyo, Japan)) and Dextran polysulfate (MW=5000) (Sigma, Sydney, Australia) in place of PPS. […] Data is presented as 35S-GAG radioactivity and as a percentage of control taken as 100% or as DPM/ug DNA. * P<0.05 relative to control.

[2] = test system: Murine ATDC5 cell line; experiment: Proteoglycan biosynthesis (35S-GAG) in pellet cultures; format: cell-based; conditions: FIG. 14; for chondrogenic effect / proteoglycan synthesis: Heparin 1.25-20 ug/mL, 6 day pellet culture
Source text: FIG. 12. A bar graph of the concentration dependent effects of Pentosan Polysulfate (PPS), on the biosynthesis of Proteoglycans (PGs) as determined by the incorporation of radioactively labelled sulfate into the sulfated glycosaminoglycans (^35S-GAG) of PGs in 6 day pellet cultures of murine progenitor cells (ADTC-5). *=p<0.05 relative to control.
FIG. 22. A bar graph of the concentration dependent effects of rhNC4 (batch PBA-1202P) expressed by K. lactis, in the absence (maintenance media, MM) and presence of insulin (10 micrograms/mL) (differentiation media, DM), on the biosynthesis of Proteoglycans PGs) in pellet cultures of ATDC5 cells. Data is shown as the % change relative to controls taken to be 100%.
Murine Progenitor cells (cell lines C3H10T1/2 or ATDC5) purchased from RIKEN Cell Bank (Tsukuba, Japan) or human immunoselected Stro-1+ Progenitor cells (Mesoblast Ltd, Melbourne, Australia) were seeded in 2 ml screw-capped sterile centrifuge tubes and the total volume made-up to 1 ml with DMEM-High glucose medium containing 10% FBS. Progenitor cells were then centrifuged at 500 g for 10 min in a swing-out rotor at room temperature. The screw caps were loosened and the tubes placed in an incubator at 37° C., in a 5% CO2/95% air moist atmosphere. The pellets generally formed within 24 hours. Medium was changed daily in the first two days, then once every 2-3 days thereafter. On day 5 the medium was removed and to each tube was added 1 ml with DMEM-High glucose medium containing 10% FBS, 5.0 μCi/ml ^35S-H2SO4 and various concentrations of PPS (0, 0.1, 0.5, 1.0, 2.5, 5.0, 10.0, 20.0, μg/ml) (FIG. 12-15) or rhNC4 (0, 0.1, 0.5, 1.0, 2.0 μg/ml) (FIG. 22). Triplicate cultures were used for all concentration of drugs. The screw caps were loosened and the tubes placed in an incubator at 37° C., in a 5% CO2/95% moist air atmosphere […]. On day 6, 200 μl of stock papain solution [2.5 mg/ml papain, 7.9 mg/ml L-Cystein in papain buffer (0.1 M NaAC, 5 mM EDTA, pH6.0)] was added to each tube. The tubes were tightly capped and incubated at 65° C. for 2 hours. After papain digestion, 4 replicates of 200 μl of papain digested solution were separately transferred to a 96-well micro-titre plate (200 μl/well). The remaining solution was used for the DNA fluorometric assays which were undertaken in triplicate as described above. Biosynthesis of ^35S-GAGs was determined as described for the monolayer cultures and the results expressed as ^35-S-GAGs/μg DNA.
Data is shown as the % of controls taken to be 100%.

[3] = test system: Primary human progenitor cells; experiment: Progenitor cell proliferation, WST-1 assay; format: cell-based; conditions: HA alone; day 3 and day 5 cultures; FIG. 20
Description: (§1) FIG. 4. The Effects of Pentosan Polysulfate (PPS) on Human Progenitor cell Proliferation. Primary human progenitor cells were cultured in 24 well plates in growth media supplemented with PPS at the indicated concentrations. At various time intervals (day 1, 3, 6), the growth media was removed and replaced with phenol red free media containing the tetrazolium salt WST-1 for 2 hours at 37° C./5% CO2. WST-1 is cleaved by mitochondrial dehydrogenase in viable cells to produce a formazan dye that can be detected using an ELISA plate reader at a wavelength of 450 nm. Absorbance at 450 nm for each time point is shown for all concentrations of PPS.
FIG. 20. […] At various time intervals (day 3 & 5), the growth media was removed and replaced with phenol red free media containing the tetrazolium salt WST-1 for 2 hours at 37° C./5% CO2. Absorbance at 450 nm for each time point is shown for all concentrations of PPS and HA.
as §1, with “Primary” for “FIG. 4. The Effects of Pentosan Polysulfate (PPS) on Human Progenitor cell Proliferation. Primary”

[4] = test system: ATDC5 cell; experiment: Kinetics of ATDC5 cell growth over 13 days; format: cell-based, murine; conditions: rhNC4 (batch PBA-1200P) 5 ug/ml or Insulin 10 ug/ml; 20,000 cells per well at Day 0; FIG. 30
Description: FIG. 30. A bar graph of the kinetics of ATDC5 cell growth induced by rhNC4 (batch PBA-1200P) (5 ug/ml) or Insulin (10 ug/ml) relative to control over 13 days. 20,000 cells per well were seeded at Day 0 (Start) with medium changes every 48 hrs. Insulin treated cultures reached confluence on day 6 and PBA-1200P on day 9. Control cultures also reached confluence on day 9 but in contrast to cultures containing insulin or PBA-1200P ceased to undergo replication.

Dextran polysulfate
proteoglycan synthesis / chondrogenic differentiation [1]: downregulate or repress differentiation | proteoglycan synthesis / chondrogenic differentiation ([1]; listed as Dextran Sulfate (DS)): inhibited PG synthesis | proteoglycan synthesis / chondrogenic differentiation ([1]; listed as dextran sulfate): concentration dependent reduction in the production of proteoglycans

Heparin
chondrogenic effect / proteoglycan synthesis [2]: does not exhibit a chondrogenic effect; also recorded: failed to significantly stimulate proteoglycan synthesis | chondrogenic effect / proteoglycan synthesis ([2]; listed as heparin): suppressing chondrogenesis | proteoglycan synthesis ([2]; Heparin 2.5 ugrams/mL, pellet culture): little activity | proteoglycan synthesis ([2]; Heparin at higher concentrations (above 2.5 ugrams/mL)): may cause inhibition

Hyaluronan [HA]
proteoglycan synthesis (35SO4 incorporation into PGs) [1]: appeared to increase synthesis of proteoglycans but not strongly | proteoglycan synthesis (35SO4 incorporation into PGs) ([1]; listed as hyaluronan (HA)): low level of ^35SO4 incorporation into PGs | progenitor cell proliferation (WST-1) [3]: absence of any significant stimulatory effect

Insulin
day on which cultures reached confluence [4]: 6 days

Source: patent publication US9888679B2, “Protection of progenitor cells and regulation of their differentiation” (Proteobioactives Pty Ltd, priority 2007, dated 2018)
